{"source": "patent US7863293B2", "about": "“CXCR4 chemokine receptor binding compounds” (Genzyme Corporation, priority 2003, dated 2011)", "key": {"[1]": {"test_system": "progenitor cells (CFU-GM, BFU-E, CFU-GEMM) per mL of blood", "conditions": "for Absolute Number Progenitors Per ML Blood, BFU-E / Absolute Number Progenitors Per ML Blood, CFU-GEMM / Absolute Number Progenitors Per ML Blood, CFU-GM: 1 hour post administration; for Absolute Progenitors Per ML Blood, BFU-E / Absolute Progenitors Per ML Blood, CFU-GEMM / Absolute Progenitors Per ML Blood, CFU-GM: 5 mg/Kg single s.c.; for Absolute Progenitors Per ML Blood, BFU-E / Absolute Progenitors Per ML Blood, CFU-GEMM / Absolute Progenitors Per ML Blood, CFU-GM / Fold Change Compared to Time 0, progenitors BFU-E / Fold Change Compared to Time 0, progenitors CFU-GEMM / Fold Change Compared to Time 0, progenitors GM: methylcellulose culture; for Fold Change Compared to Time 0, progenitors BFU-E / Fold Change Compared to Time 0, progenitors CFU-GEMM / Fold Change Compared to Time 0, progenitors GM: mice", "procedure": "Progenitors were stimulated to form colonies in vitro with the combination of 1 U/ml rhu Epo, 50 ng/ml rhu SLF, 5% ^Vol/Vol pokeweed mitogen mouse spleen cell conditioned medium (PWMSCM), and 0.1 mM hemin. Plates were scored 7 days after incubation."}, "[2]": {"test_system": "white blood cells", "conditions": "human volunteers; 80 μg/kg s.c.", "procedure": "(§1) Five healthy human volunteers having initial white blood cell counts of 4,500-7,500 cells/mm^3 were used in the study. […] Blood samples were obtained via catheter prior to the dose, and at various times up to 24 hours after dosing.\nThe blood samples were evaluated for total white blood cells, CD34 positive progenitor cells (via FACS analysis) as a percentage of total white blood cells, as well as the absolute numbers per mL and cycling status of granulocyte macrophage (CFU-GM), erythroid (BFU-E), and multipotential (CFU-GEMM) progenitor cells."}, "[3]": {"test_system": "CFU-GM progenitor cells", "conditions": "average of 5 donors, 80 μg/kg s.c.", "procedure": "as §1\n(§2) All progenitor cell results are based on the scoring of 3 culture plates per assay per point.\n(§3) For the progenitor cell numbers and cycling status, the numbers of CFU-GM, BFU-E and CFU-GEMM in methylcellulose cultures by stimulation of the cells with 1 Unit (U)/ml recombinant human (rhu) erythropoietin, 100 U/ml rhu granulocyte-macrophage colony stimulating factor (GM-CSF), 100 U/ml rhu interleukin-3 (IL-3) and 50 ng/ml rhu steel factor (SLF=stem cell factor (SCF)). The CFU-GM were also evaluated in agar cultures stimulated with 100 U/ml rhu GM-CSF and 50 ng/ml rhu SLF. For both types of assays, colonies were scored after 14 day incubation in a humidified atmosphere with 5% CO2 and lowered (5%) O2 tension. Cell cycling status of progenitors was measured using a high specific activity tritiated thymidine kill technique as previously described (Broxmeyer, H. E., et al., Exp. Hematol. (1989) 17:455-459)."}, "[4]": {"test_system": "CFU-GM, BFU-E and CFU-GEMM progenitor cells", "conditions": "80 μg/kg s.c.; for Fold change compared to T = 0, BFU-E, methylcellulose culture, MEAN / Fold change compared to T = 0, CFU-GEMM, methylcellulose culture, MEAN / Fold change compared to T = 0, CFU-GM, methylcellulose culture, MEAN: average of 5 donors", "procedure": "as §1, §2, §3"}, "[5]": {"test_system": "white blood cell count", "conditions": "all patients, i.v. 10-80 μg/kg; 5-10 hours after administration", "quoted_text": "Eleven human patients having initial white blood cell counts of 4,000-6,500 cells/mm^3 were used in the study. […] Aliquots from this stock solution were added to 50-ml bags of 0.9% saline for intravenous injection in amounts to achieve the desired dosage levels (10 μg/kg-80 μg/kg).\nThe subjects described in this example already contained an indwelling peripheral intravenous catheter. […] Blood samples were obtained prior to the dose, and at various times up to 24 hours after dose administration.\nThree patients were administered dosages of 10 μg/kg (open circles); 3 patients were administered dosages of 20 μg/kg (solid circles); 3 patients were administered 40 μg/kg (open triangles); and 2 patients were administered 80 μg/kg (closed triangles)."}, "[6]": {"test_system": "bone marrow stem cells", "conditions": "rats, coronary ligation; given within hours after cardiac ischemia, with or without rhG-CSF", "procedure": "Adult rats are anesthetized and a thoracotomy is performed. The descending branch of the left coronary artery is ligated and not reperfused. […] Control rats are not treated with the reagents. The animals are monitored at one-week intervals by echocardiography and MRI. […] On the day of sacrifice, the hemodynamic functions are analyzed for left ventricle-end diastolic pressure, left ventricle-developed pressure and the rate of rise and fall of left ventricle pressure. The heart is then arrested in diastole and perfused via the abdominal aorta to flush residual blood from the vascular network of the myocardium. […] Several slices are made through the fixed heart and these are embedded in paraffin and sections. The sections are stained and analyzed by light microscopy to determine the size of the infarct in the treated and control animals. […] The immunohistochemical analysis involves the identification of transcription factors and surface markers expressed in early stages of myocyte development."}, "[7]": {"test_system": "WBC counts", "conditions": "HIV-infected patients; infusion 2.5 or 5.0 μg/kg/hr"}, "[8]": {"test_system": "WBC and circulating CD34+ progenitor/stem cells", "conditions": "Phase 1 study, single dose of 80 μg/kg; cited from earlier work"}}, "note": "Where two headings read alike, the source gives them in different places."}
{"smiles": "c1cc(CN2CCCNCCNCCCNCC2)ccc1CN1CCCNCCNCCCNCC1", "note": "[AMD3100, 1,1′-[1,4-phenylene-bis(methylene)]-bis-1,4,8,11-tetraazacyclotetradecane]", "values": [{"measurement": "Absolute Number Progenitors Per ML Blood, BFU-E", "setting": "[1]; 1 mg/kg single s.c.", "value": 62, "unit": "per ML blood"}, {"measurement": "Absolute Number Progenitors Per ML Blood, CFU-GEMM", "setting": "[1]; 1 mg/kg single s.c.", "value": 27.1, "unit": "per ML blood"}, {"measurement": "Absolute Number Progenitors Per ML Blood, CFU-GM", "setting": "[1]; 1 mg/kg single s.c.", "value": 424, "unit": "per ML blood"}, {"measurement": "Absolute Number Progenitors Per ML Blood, BFU-E", "setting": "[1]; 2.5 mg/kg single s.c.", "value": 98.9, "unit": "per ML blood"}, {"measurement": "Absolute Number Progenitors Per ML Blood, CFU-GEMM", "setting": "[1]; 2.5 mg/kg single s.c.", "value": 70.6, "unit": "per ML blood"}, {"measurement": "Absolute Number Progenitors Per ML Blood, CFU-GM", "setting": "[1]; 2.5 mg/kg single s.c.", "value": 687.6, "unit": "per ML blood"}, {"measurement": "Absolute Progenitors Per ML Blood, BFU-E", "setting": "[1]; 15″", "value": 134.5, "unit": "per ML blood"}, {"measurement": "Absolute Progenitors Per ML Blood, CFU-GEMM", "setting": "[1]; 15″", "value": 90.4, "unit": "per ML blood"}, {"measurement": "Absolute Progenitors Per ML Blood, CFU-GM", "setting": "[1]; 15″", "value": 791.6, "unit": "per ML blood"}, {"measurement": "Absolute Progenitors Per ML Blood, BFU-E", "setting": "[1]; 30″", "value": 209.3, "unit": "per ML blood"}, {"measurement": "Absolute Progenitors Per ML Blood, CFU-GEMM", "setting": "[1]; 30″", "value": 113.5, "unit": "per ML blood"}, {"measurement": "Absolute Progenitors Per ML Blood, CFU-GM", "setting": "[1]; 30″", "value": 1805.5, "unit": "per ML blood"}, {"measurement": "Absolute Progenitors Per ML Blood, BFU-E", "setting": "[1]; 120″", "value": 102.3, "unit": "per ML blood"}, {"measurement": "Absolute Progenitors Per ML Blood, CFU-GEMM", "setting": "[1]; 120″", "value": 47.6, "unit": "per ML blood"}, {"measurement": "Absolute Progenitors Per ML Blood, CFU-GM", "setting": "[1]; 120″", "value": 828.7, "unit": "per ML blood"}, {"measurement": "Absolute Number Progenitors Per ML Blood, BFU-E", "setting": "[1]; 5 mg/kg single s.c.", "value": 92.8, "unit": "per ML blood"}, {"measurement": "Absolute Number Progenitors Per ML Blood, CFU-GEMM", "setting": "[1]; 5 mg/kg single s.c.", "value": 69.5, "unit": "per ML blood"}, {"measurement": "Absolute Number Progenitors Per ML Blood, CFU-GM", "setting": "[1]; 5 mg/kg single s.c.", "value": 608.4, "unit": "per ML blood"}, {"measurement": "Absolute Number Progenitors Per ML Blood, BFU-E", "setting": "[1]; 10 mg/kg single s.c.", "value": 120.5, "unit": "per ML blood"}, {"measurement": "Absolute Number Progenitors Per ML Blood, CFU-GEMM", "setting": "[1]; 10 mg/kg single s.c.", "value": 79.8, "unit": "per ML blood"}, {"measurement": "Absolute Number Progenitors Per ML Blood, CFU-GM", "setting": "[1]; 10 mg/kg single s.c.", "value": 825.6, "unit": "per ML blood"}, {"measurement": "Fold Change Compared to Time 0, progenitors BFU-E", "setting": "[1]; time 2′", "value": 2.07, "unit": "fold"}, {"measurement": "Fold Change Compared to Time 0, progenitors CFU-GEMM", "setting": "[1]; time 2′", "value": 1.85, "unit": "fold"}, {"measurement": "Fold Change Compared to Time 0, progenitors GM", "setting": "[1]; time 2′", "value": 2.86, "unit": "fold"}, {"measurement": "Fold Change Compared to Time 0, progenitors BFU-E", "setting": "[1]; time 15″", "value": 2.72, "unit": "fold"}, {"measurement": "Fold Change Compared to Time 0, progenitors CFU-GEMM", "setting": "[1]; time 15″", "value": 3.51, "unit": "fold"}, {"measurement": "Fold Change Compared to Time 0, progenitors GM", "setting": "[1]; time 15″", "value": 2.73, "unit": "fold"}, {"measurement": "Fold Change Compared to Time 0, progenitors BFU-E", "setting": "[1]; time 30″", "value": 4.24, "unit": "fold"}, {"measurement": "Fold Change Compared to Time 0, progenitors CFU-GEMM", "setting": "[1]; time 30″", "value": 4.41, "unit": "fold"}, {"measurement": "Fold Change Compared to Time 0, progenitors GM", "setting": "[1]; time 30″", "value": 6.23, "unit": "fold"}, {"measurement": "time post-administration at which elevation of white blood cell count maximized", "setting": "[2]", "value": 6, "unit": "h"}, {"measurement": "Fold change compared to T = 0, CFU-GM, agar culture, MEAN", "setting": "[3]; T = 1 hour", "value": 2.81, "unit": "fold"}, {"measurement": "Fold change compared to T = 0, CFU-GM, agar culture, MEAN", "setting": "[3]; T = 3 hours", "value": 8.54, "unit": "fold"}, {"measurement": "Fold change compared to T = 0, CFU-GM, agar culture, MEAN", "setting": "[3]; T = 6 hours", "value": 17.93, "unit": "fold"}, {"measurement": "Fold change compared to T = 0, CFU-GM, agar culture, MEAN", "setting": "[3]; T = 9 hours", "value": 10.25, "unit": "fold"}, {"measurement": "Fold change compared to T = 0, CFU-GM, agar culture, MEAN", "setting": "[3]; T = 24 hours", "value": 2.08, "unit": "fold"}, {"measurement": "fold change from T=0, progenitors BFU-E, methylcellulose culture", "setting": "[4]; P2, T = 1 hour", "value": 1.43, "unit": "fold"}, {"measurement": "Absolute # of Progenitors per ML, BFU-E", "setting": "[4]; P4, T = 9 hours", "value": 1343, "unit": "per ML"}, {"measurement": "Fold change compared to T = 0, BFU-E, methylcellulose culture, MEAN", "setting": "[4]; T = 1 hour", "value": 1.99, "unit": "fold"}, {"measurement": "Fold change compared to T = 0, CFU-GEMM, methylcellulose culture, MEAN", "setting": "[4]; T = 1 hour", "value": 2.32, "unit": "fold"}, {"measurement": "Fold change compared to T = 0, CFU-GM, methylcellulose culture, MEAN", "setting": "[4]; T = 1 hour", "value": 4.77, "unit": "fold"}, {"measurement": "Fold change compared to T = 0, BFU-E, methylcellulose culture, MEAN", "setting": "[4]; T = 3 hours", "value": 3.21, "unit": "fold"}, {"measurement": "Fold change compared to T = 0, CFU-GEMM, methylcellulose culture, MEAN", "setting": "[4]; T = 3 hours", "value": 4.33, "unit": "fold"}, {"measurement": "Fold change compared to T = 0, CFU-GM, methylcellulose culture, MEAN", "setting": "[4]; T = 3 hours", "value": 13.66, "unit": "fold"}, {"measurement": "Fold change compared to T = 0, BFU-E, methylcellulose culture, MEAN", "setting": "[4]; T = 6 hours", "value": 6.01, "unit": "fold"}, {"measurement": "Fold change compared to T = 0, CFU-GEMM, methylcellulose culture, MEAN", "setting": "[4]; T = 6 hours", "value": 10.07, "unit": "fold"}, {"measurement": "Fold change compared to T = 0, CFU-GM, methylcellulose culture, MEAN", "setting": "[4]; T = 6 hours", "value": 21.71, "unit": "fold"}, {"measurement": "Fold change compared to T = 0, BFU-E, methylcellulose culture, MEAN", "setting": "[4]; T = 9 hours", "value": 4.34, "unit": "fold"}, {"measurement": "Fold change compared to T = 0, CFU-GEMM, methylcellulose culture, MEAN", "setting": "[4]; T = 9 hours", "value": 5.25, "unit": "fold"}, {"measurement": "Fold change compared to T = 0, CFU-GM, methylcellulose culture, MEAN", "setting": "[4]; T = 9 hours", "value": 10.47, "unit": "fold"}, {"measurement": "Fold change compared to T = 0, BFU-E, methylcellulose culture, MEAN", "setting": "[4]; T = 24 hours", "value": 1.26, "unit": "fold"}, {"measurement": "Fold change compared to T = 0, CFU-GEMM, methylcellulose culture, MEAN", "setting": "[4]; T = 24 hours", "value": 1.53, "unit": "fold"}, {"measurement": "Fold change compared to T = 0, CFU-GM, methylcellulose culture, MEAN", "setting": "[4]; T = 24 hours", "value": 1.56, "unit": "fold"}, {"measurement": "change in white blood cell count", "setting": "[5]", "value": "marked increase in white blood cell count"}]}
{"smiles": "c1cc(CN2CCCNCCNCCCNCC2)ccc1CN1CCCNCCNCCCNCC1", "note": "[AMD-3100]", "values": [{"measurement": "effect on cardiac remodeling, scar formation and myocardium", "setting": "[6]", "value": "block to cardiac remodeling and scar formation"}, {"measurement": "time after discontinuation of the infusion at which WBC counts returned to baseline", "setting": "[7]", "value": 7, "unit": "days"}, {"measurement": "WBC count", "setting": "[8]", "value": "17,000 /μl"}]}
